We go through three compounds from the kinase profiling compilation of Christmann-Franck et al. (2016).

NTRK3 (human), sequence (Q16288 whole entry, looked up): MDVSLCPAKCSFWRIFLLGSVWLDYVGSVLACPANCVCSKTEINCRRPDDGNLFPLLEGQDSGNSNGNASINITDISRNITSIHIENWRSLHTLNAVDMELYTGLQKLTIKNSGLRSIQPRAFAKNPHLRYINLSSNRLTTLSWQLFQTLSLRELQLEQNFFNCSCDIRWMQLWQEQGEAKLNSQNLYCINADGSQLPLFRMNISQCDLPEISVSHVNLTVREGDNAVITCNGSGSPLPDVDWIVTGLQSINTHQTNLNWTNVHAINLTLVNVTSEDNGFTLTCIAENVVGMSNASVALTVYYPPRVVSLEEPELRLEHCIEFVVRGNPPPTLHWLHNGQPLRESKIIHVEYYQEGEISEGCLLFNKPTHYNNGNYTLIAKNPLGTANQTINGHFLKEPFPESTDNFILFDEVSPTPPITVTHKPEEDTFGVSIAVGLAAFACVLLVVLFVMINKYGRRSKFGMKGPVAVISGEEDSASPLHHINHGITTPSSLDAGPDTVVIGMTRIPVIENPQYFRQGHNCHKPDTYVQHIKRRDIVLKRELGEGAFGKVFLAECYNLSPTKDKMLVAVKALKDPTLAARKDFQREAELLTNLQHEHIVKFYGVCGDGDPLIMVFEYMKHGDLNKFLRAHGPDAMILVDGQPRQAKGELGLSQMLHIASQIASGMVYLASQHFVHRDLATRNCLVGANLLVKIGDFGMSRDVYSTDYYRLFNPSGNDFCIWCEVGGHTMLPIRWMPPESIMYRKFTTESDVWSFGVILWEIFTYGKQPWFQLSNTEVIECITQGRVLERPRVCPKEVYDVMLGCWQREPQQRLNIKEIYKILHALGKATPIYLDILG
PRKG2 (human), sequence (Q13237 whole entry, looked up): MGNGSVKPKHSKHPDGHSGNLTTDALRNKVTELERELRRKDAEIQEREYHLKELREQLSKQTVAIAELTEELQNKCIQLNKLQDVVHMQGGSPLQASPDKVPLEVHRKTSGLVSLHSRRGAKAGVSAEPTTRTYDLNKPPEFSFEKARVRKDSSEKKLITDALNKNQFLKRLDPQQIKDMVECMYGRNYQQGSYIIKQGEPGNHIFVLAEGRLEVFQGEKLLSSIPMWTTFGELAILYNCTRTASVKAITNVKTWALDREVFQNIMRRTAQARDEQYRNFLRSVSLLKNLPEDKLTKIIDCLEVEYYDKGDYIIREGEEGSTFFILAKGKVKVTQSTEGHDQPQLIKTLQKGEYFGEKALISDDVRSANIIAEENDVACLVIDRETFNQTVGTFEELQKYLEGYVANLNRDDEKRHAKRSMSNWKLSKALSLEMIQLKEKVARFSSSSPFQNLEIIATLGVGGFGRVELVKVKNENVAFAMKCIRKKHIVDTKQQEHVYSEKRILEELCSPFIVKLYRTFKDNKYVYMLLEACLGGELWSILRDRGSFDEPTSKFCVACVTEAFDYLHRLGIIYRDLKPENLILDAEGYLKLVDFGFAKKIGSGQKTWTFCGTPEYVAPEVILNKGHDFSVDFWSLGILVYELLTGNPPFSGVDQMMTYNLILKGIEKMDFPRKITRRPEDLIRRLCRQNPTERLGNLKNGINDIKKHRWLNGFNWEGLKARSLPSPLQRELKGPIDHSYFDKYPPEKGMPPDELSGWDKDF

One test addresses NEK2 (human) (UniProt P51955). In words: radiometric filter-binding kinase assay, Kinase HotSpot. Conditions: compound 0.5 µM; ATP 10 µM.
As for `O=C(Nc1cccc(Nc2nccc(Nc3cccc(C(F)(F)F)c3)n2)c1)C1CC1`, the residual activity (in general, the signal under treatment as a percentage of the control signal) was 95.3%.
Same read-out and setting: then `Nc1cccc(-c2cc3c(Oc4cccc(O)c4)ncnc3[nH]2)c1`, with 98%.
The same measure, in the same setting: next, `CC[n+]1c(/C=C/N(C)c2ccccc2)n(-c2ccccc2)c2ccc(-c3nc4ccccc4s3)cc21`: 100%.

In the next test the target is NTRK1 (human) (UniProt P04629). The test is described as above. Conditions: compound 0.5 µM; ATP 10 µM.
As for `O=C(Nc1cccc(Nc2nccc(Nc3cccc(C(F)(F)F)c3)n2)c1)C1CC1`, the residual activity was 98.1%.
For the compound `Nc1cccc(-c2cc3c(Oc4cccc(O)c4)ncnc3[nH]2)c1`, the residual activity came to 90.5%.
Consider `CC[n+]1c(/C=C/N(C)c2ccccc2)n(-c2ccccc2)c2ccc(-c3nc4ccccc4s3)cc21`, for which the residual activity amounted to 99.1%.

Another test concerns the target NTRK2 (human) (UniProt Q16620). Described as above. Conditions: compound 0.5 µM; ATP 10 µM.
Take `O=C(Nc1cccc(Nc2nccc(Nc3cccc(C(F)(F)F)c3)n2)c1)C1CC1`: the residual activity came to 71.6%.
Same read-out and setting: then `Nc1cccc(-c2cc3c(Oc4cccc(O)c4)ncnc3[nH]2)c1`, with 95.5%; and `CC[n+]1c(/C=C/N(C)c2ccccc2)n(-c2ccccc2)c2ccc(-c3nc4ccccc4s3)cc21`, with 97.8%.

The next test addresses NTRK3 (human) (UniProt Q16288). Described as above. The following applies: compound 0.5 µM; ATP 10 µM.
Consider `O=C(Nc1cccc(Nc2nccc(Nc3cccc(C(F)(F)F)c3)n2)c1)C1CC1`, for which the residual activity came to 77.3%.
Regarding `Nc1cccc(-c2cc3c(Oc4cccc(O)c4)ncnc3[nH]2)c1`, the residual activity was determined as 63.3%.
In the case of `CC[n+]1c(/C=C/N(C)c2ccccc2)n(-c2ccccc2)c2ccc(-c3nc4ccccc4s3)cc21`, the residual activity amounted to 100%.

A further test addresses PAK4 (human) (UniProt O96013). Described as above. Conditions: compound 0.5 µM; ATP 10 µM.
Consider `O=C(Nc1cccc(Nc2nccc(Nc3cccc(C(F)(F)F)c3)n2)c1)C1CC1`, for which the residual activity was determined as 87.4%.
On the same count and under the same terms, then `Nc1cccc(-c2cc3c(Oc4cccc(O)c4)ncnc3[nH]2)c1`, with 99.8%; and `CC[n+]1c(/C=C/N(C)c2ccccc2)n(-c2ccccc2)c2ccc(-c3nc4ccccc4s3)cc21`, with 109%.

In the next test the target is PDGFRB (human) (UniProt P09619). The test is described as above. The following applies: compound 0.5 µM; ATP 10 µM.
For `O=C(Nc1cccc(Nc2nccc(Nc3cccc(C(F)(F)F)c3)n2)c1)C1CC1`, the residual activity is 101%.
Still for that read-out and setting: then `Nc1cccc(-c2cc3c(Oc4cccc(O)c4)ncnc3[nH]2)c1`, with 39.9%; and `CC[n+]1c(/C=C/N(C)c2ccccc2)n(-c2ccccc2)c2ccc(-c3nc4ccccc4s3)cc21`, with 102%.

The next test addresses PHKG1 (human) (UniProt Q16816). The description is as above. Conditions: compound 0.5 µM; ATP 10 µM.
With `O=C(Nc1cccc(Nc2nccc(Nc3cccc(C(F)(F)F)c3)n2)c1)C1CC1`, the residual activity is 98.3%.
Same read-out and setting: then `Nc1cccc(-c2cc3c(Oc4cccc(O)c4)ncnc3[nH]2)c1`, with 81.5%.
As for `CC[n+]1c(/C=C/N(C)c2ccccc2)n(-c2ccccc2)c2ccc(-c3nc4ccccc4s3)cc21`, the residual activity was 96.1%.

For a further test, the target named is PLK3 (human) (UniProt Q9H4B4). The description is as above. The following applies: compound 0.5 µM; ATP 10 µM.
PLK3 (human), sequence (Q9H4B4 whole entry, looked up): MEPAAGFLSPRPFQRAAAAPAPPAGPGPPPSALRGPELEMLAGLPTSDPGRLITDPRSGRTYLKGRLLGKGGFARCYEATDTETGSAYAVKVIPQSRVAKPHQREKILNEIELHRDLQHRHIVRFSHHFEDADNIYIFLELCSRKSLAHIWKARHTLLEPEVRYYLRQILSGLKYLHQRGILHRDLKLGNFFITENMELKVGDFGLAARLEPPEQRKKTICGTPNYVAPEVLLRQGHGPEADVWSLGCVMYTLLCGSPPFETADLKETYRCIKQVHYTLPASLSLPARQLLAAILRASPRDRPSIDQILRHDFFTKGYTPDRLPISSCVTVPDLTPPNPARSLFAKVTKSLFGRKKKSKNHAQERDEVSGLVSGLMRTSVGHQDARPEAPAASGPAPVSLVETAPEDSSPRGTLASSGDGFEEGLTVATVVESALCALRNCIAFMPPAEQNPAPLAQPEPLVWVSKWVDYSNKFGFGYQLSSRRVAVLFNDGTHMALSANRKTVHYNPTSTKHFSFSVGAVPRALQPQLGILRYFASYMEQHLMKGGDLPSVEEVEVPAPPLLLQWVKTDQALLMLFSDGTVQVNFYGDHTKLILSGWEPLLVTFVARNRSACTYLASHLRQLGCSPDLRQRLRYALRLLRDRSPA
As to `O=C(Nc1cccc(Nc2nccc(Nc3cccc(C(F)(F)F)c3)n2)c1)C1CC1`, the residual activity amounted to 90.2%.
Same read-out and setting: then `Nc1cccc(-c2cc3c(Oc4cccc(O)c4)ncnc3[nH]2)c1`, with 95.7%.
The same measure, in the same setting: next, `CC[n+]1c(/C=C/N(C)c2ccccc2)n(-c2ccccc2)c2ccc(-c3nc4ccccc4s3)cc21`: 104%.

The next test concerns the target PRKCE (human) (UniProt Q02156). The description is as above. Conditions: compound 0.5 µM; ATP 10 µM.
Consider `O=C(Nc1cccc(Nc2nccc(Nc3cccc(C(F)(F)F)c3)n2)c1)C1CC1`, for which the residual activity came out at 106%.
As to `Nc1cccc(-c2cc3c(Oc4cccc(O)c4)ncnc3[nH]2)c1`, the residual activity was found to be 97.4%.
On the same count and under the same terms, next, `CC[n+]1c(/C=C/N(C)c2ccccc2)n(-c2ccccc2)c2ccc(-c3nc4ccccc4s3)cc21`: 97.7%.

A further test has as its target PRKD2 (human) (UniProt Q9BZL6). Described as above. The following applies: compound 0.5 µM; ATP 10 µM.
Consider `O=C(Nc1cccc(Nc2nccc(Nc3cccc(C(F)(F)F)c3)n2)c1)C1CC1`, for which the residual activity was 101%.
On the same count and under the same terms, then `Nc1cccc(-c2cc3c(Oc4cccc(O)c4)ncnc3[nH]2)c1`, with 81.7%; and `CC[n+]1c(/C=C/N(C)c2ccccc2)n(-c2ccccc2)c2ccc(-c3nc4ccccc4s3)cc21`, with 102%.

Another test addresses PRKG2 (human) (UniProt Q13237). The description is as above. Conditions: compound 0.5 µM; ATP 10 µM.
In the case of `O=C(Nc1cccc(Nc2nccc(Nc3cccc(C(F)(F)F)c3)n2)c1)C1CC1`, the residual activity is 96.2%.
Still for that read-out and setting: next, `Nc1cccc(-c2cc3c(Oc4cccc(O)c4)ncnc3[nH]2)c1`: 108%.
The same measure, in the same setting: next, `CC[n+]1c(/C=C/N(C)c2ccccc2)n(-c2ccccc2)c2ccc(-c3nc4ccccc4s3)cc21`: 92.4%.

The target of a further test is PTK2 (human) (UniProt Q05397). Described as above. The following applies: compound 0.5 µM; ATP 10 µM.
PTK2 (human), sequence (Q05397 whole entry, looked up): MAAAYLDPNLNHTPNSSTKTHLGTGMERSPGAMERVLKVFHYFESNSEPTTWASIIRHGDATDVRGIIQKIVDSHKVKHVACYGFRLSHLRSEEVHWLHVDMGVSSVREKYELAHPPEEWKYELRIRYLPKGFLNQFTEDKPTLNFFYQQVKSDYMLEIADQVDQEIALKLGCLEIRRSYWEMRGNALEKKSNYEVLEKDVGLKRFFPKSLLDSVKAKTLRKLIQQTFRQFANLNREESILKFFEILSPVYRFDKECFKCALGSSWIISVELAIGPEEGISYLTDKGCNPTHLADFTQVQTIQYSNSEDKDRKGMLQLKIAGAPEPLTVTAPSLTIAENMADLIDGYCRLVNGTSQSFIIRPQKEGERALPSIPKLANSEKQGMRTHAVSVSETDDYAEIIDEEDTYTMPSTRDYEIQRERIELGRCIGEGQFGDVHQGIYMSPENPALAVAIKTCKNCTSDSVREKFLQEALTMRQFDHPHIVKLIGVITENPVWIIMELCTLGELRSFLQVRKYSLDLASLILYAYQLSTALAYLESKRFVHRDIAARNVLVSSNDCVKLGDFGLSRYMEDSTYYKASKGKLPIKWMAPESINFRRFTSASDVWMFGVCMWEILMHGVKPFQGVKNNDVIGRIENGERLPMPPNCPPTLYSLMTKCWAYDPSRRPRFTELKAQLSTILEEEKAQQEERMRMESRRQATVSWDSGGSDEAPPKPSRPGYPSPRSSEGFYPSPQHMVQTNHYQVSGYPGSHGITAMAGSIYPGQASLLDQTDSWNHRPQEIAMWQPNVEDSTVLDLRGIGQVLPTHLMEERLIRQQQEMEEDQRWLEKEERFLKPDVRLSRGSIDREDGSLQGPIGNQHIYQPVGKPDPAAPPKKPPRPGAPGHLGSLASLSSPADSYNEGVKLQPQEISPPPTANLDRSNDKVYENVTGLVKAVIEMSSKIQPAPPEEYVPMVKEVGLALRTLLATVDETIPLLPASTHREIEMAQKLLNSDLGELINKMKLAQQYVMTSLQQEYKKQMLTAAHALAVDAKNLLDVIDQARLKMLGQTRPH
`O=C(Nc1cccc(Nc2nccc(Nc3cccc(C(F)(F)F)c3)n2)c1)C1CC1`: the residual activity was 89.1%.
On the same count and under the same terms, next, `Nc1cccc(-c2cc3c(Oc4cccc(O)c4)ncnc3[nH]2)c1`: 88.4%.
On the same count and under the same terms, next, `CC[n+]1c(/C=C/N(C)c2ccccc2)n(-c2ccccc2)c2ccc(-c3nc4ccccc4s3)cc21`: 108%.

A further test addresses PTK6 (human) (UniProt Q13882). The test is described as above. Conditions: compound 0.5 µM; ATP 10 µM.
For the compound `O=C(Nc1cccc(Nc2nccc(Nc3cccc(C(F)(F)F)c3)n2)c1)C1CC1`, the residual activity was 72.3%.
Same read-out and setting: then `Nc1cccc(-c2cc3c(Oc4cccc(O)c4)ncnc3[nH]2)c1`, with 11.1%; and `CC[n+]1c(/C=C/N(C)c2ccccc2)n(-c2ccccc2)c2ccc(-c3nc4ccccc4s3)cc21`, with 90.2%.

For the next test, the target named is RPS6KA6 KD1 KD2 (human) (UniProt Q9UK32). Described as above. Conditions: compound 0.5 µM; ATP 10 µM.
RPS6KA6 KD1 KD2 (human), sequence (Q9UK32 whole entry, looked up): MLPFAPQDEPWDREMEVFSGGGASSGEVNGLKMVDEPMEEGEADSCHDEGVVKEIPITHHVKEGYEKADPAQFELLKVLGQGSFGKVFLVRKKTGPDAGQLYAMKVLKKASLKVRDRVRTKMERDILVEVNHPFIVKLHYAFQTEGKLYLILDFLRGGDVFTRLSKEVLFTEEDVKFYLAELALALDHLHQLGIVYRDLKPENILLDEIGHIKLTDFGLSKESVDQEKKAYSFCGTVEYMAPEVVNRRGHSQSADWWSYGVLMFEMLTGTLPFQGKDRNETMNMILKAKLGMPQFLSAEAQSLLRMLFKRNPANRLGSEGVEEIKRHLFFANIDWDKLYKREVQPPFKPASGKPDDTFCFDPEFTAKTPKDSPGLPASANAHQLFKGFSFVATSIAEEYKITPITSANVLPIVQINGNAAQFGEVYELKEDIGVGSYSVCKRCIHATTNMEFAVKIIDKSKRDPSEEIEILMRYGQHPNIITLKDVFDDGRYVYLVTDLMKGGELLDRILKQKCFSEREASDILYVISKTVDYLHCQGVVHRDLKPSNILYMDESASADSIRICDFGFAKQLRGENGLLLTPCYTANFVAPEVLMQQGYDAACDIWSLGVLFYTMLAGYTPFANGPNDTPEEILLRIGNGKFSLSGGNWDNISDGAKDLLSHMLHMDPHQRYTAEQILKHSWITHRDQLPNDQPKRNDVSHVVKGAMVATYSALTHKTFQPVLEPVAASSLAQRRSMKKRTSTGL
As to `O=C(Nc1cccc(Nc2nccc(Nc3cccc(C(F)(F)F)c3)n2)c1)C1CC1`, the residual activity was 89.5%.
On the same count and under the same terms, then `Nc1cccc(-c2cc3c(Oc4cccc(O)c4)ncnc3[nH]2)c1`, with 95.4%; and `CC[n+]1c(/C=C/N(C)c2ccccc2)n(-c2ccccc2)c2ccc(-c3nc4ccccc4s3)cc21`, with 96%.

Another test deals with SLK (human) (UniProt Q9H2G2). The test is described as above. The following applies: compound 0.5 µM; ATP 10 µM.
Regarding `O=C(Nc1cccc(Nc2nccc(Nc3cccc(C(F)(F)F)c3)n2)c1)C1CC1`, the residual activity is 92.9%.
`Nc1cccc(-c2cc3c(Oc4cccc(O)c4)ncnc3[nH]2)c1`: the residual activity worked out at 64.1%.
As to `CC[n+]1c(/C=C/N(C)c2ccccc2)n(-c2ccccc2)c2ccc(-c3nc4ccccc4s3)cc21`, the residual activity was found to be 101%.

The target in another test is SRC (human) (UniProt P12931). Described as above. The following applies: compound 0.5 µM; ATP 10 µM.
SRC (human), sequence (P12931 whole entry, looked up): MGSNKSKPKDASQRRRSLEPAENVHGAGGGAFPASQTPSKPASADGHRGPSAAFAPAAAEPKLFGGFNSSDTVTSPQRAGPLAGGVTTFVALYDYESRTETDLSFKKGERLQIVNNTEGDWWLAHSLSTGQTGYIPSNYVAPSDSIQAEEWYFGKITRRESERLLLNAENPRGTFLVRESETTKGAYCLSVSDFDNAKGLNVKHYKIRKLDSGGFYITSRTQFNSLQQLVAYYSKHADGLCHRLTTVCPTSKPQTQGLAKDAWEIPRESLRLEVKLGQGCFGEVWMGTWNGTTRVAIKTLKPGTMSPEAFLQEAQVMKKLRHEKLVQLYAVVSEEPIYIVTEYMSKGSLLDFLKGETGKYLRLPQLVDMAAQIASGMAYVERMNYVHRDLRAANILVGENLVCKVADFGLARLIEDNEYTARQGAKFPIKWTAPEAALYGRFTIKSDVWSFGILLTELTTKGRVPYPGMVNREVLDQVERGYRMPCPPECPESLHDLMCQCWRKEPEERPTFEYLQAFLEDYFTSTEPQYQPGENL
For `O=C(Nc1cccc(Nc2nccc(Nc3cccc(C(F)(F)F)c3)n2)c1)C1CC1`, the residual activity is 64.5%.
For the compound `Nc1cccc(-c2cc3c(Oc4cccc(O)c4)ncnc3[nH]2)c1`, the residual activity is 2.07%.
Take `CC[n+]1c(/C=C/N(C)c2ccccc2)n(-c2ccccc2)c2ccc(-c3nc4ccccc4s3)cc21`: the residual activity was determined as 94.5%.

The target of the next test is SRMS (human) (UniProt Q9H3Y6). The description is as above. Conditions: compound 0.5 µM; ATP 10 µM.
SRMS (human), sequence (Q9H3Y6 whole entry, looked up): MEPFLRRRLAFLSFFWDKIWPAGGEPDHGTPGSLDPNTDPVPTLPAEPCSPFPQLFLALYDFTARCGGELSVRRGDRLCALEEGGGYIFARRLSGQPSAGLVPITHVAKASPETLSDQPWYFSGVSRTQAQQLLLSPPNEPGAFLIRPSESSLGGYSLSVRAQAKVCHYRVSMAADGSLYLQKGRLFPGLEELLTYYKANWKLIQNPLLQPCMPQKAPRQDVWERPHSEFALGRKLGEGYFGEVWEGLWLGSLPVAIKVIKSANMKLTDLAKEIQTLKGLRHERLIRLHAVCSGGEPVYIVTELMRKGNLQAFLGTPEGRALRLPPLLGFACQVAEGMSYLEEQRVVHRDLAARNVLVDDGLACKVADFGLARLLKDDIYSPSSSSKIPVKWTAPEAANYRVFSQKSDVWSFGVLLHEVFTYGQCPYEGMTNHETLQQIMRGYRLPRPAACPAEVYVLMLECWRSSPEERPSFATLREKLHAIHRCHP
`O=C(Nc1cccc(Nc2nccc(Nc3cccc(C(F)(F)F)c3)n2)c1)C1CC1`: the residual activity was 95.5%.
The same measure, in the same setting: next, `Nc1cccc(-c2cc3c(Oc4cccc(O)c4)ncnc3[nH]2)c1`: 94.4%; `CC[n+]1c(/C=C/N(C)c2ccccc2)n(-c2ccccc2)c2ccc(-c3nc4ccccc4s3)cc21`: 93.7%.

For a further test, the target named is STK16 (human) (UniProt O75716). Described as above. The following applies: compound 0.5 µM; ATP 10 µM.
With `O=C(Nc1cccc(Nc2nccc(Nc3cccc(C(F)(F)F)c3)n2)c1)C1CC1`, the residual activity is 87%.
The same measure, in the same setting: next, `Nc1cccc(-c2cc3c(Oc4cccc(O)c4)ncnc3[nH]2)c1`: 70.4%; `CC[n+]1c(/C=C/N(C)c2ccccc2)n(-c2ccccc2)c2ccc(-c3nc4ccccc4s3)cc21`: 98.4%.

The target in the next test is TTK (human) (UniProt P33981). The test is described as above. Conditions: compound 0.5 µM; ATP 10 µM.
As to `O=C(Nc1cccc(Nc2nccc(Nc3cccc(C(F)(F)F)c3)n2)c1)C1CC1`, the residual activity stood at 92.1%.
Turning to `Nc1cccc(-c2cc3c(Oc4cccc(O)c4)ncnc3[nH]2)c1`, the residual activity came out at 104%.
Take `CC[n+]1c(/C=C/N(C)c2ccccc2)n(-c2ccccc2)c2ccc(-c3nc4ccccc4s3)cc21`: the residual activity was found to be 96.6%.

The next test addresses WEE1 (human) (UniProt P30291). The test is described as above. Conditions: compound 0.5 µM; ATP 10 µM.
In the case of `O=C(Nc1cccc(Nc2nccc(Nc3cccc(C(F)(F)F)c3)n2)c1)C1CC1`, the residual activity amounted to 95.6%.
Regarding `Nc1cccc(-c2cc3c(Oc4cccc(O)c4)ncnc3[nH]2)c1`, the residual activity was 85.5%.
Still for that read-out and setting: next, `CC[n+]1c(/C=C/N(C)c2ccccc2)n(-c2ccccc2)c2ccc(-c3nc4ccccc4s3)cc21`: 92.4%.
